From ChEMBL document CHEMBL1158420, “Synthesis, spectral, crystal and antimicrobial studies of biologically potent oxime ethers of nitrogen, oxygen and sulfur heterocycles” (2009)
In brackets after ≈: the same amount, converted by molar mass.

What was measured:
[1] = system: Pseudomonas aeruginosa; experiment: Antibacterial activity against Pseudomonas aeruginosa by twofold dilution method; assay type: functional; details: Pseudomonas aeruginosa; read-out: MIC
[2] = system: Staphylococcus aureus; experiment: Antibacterial activity against Staphylococcus aureus by twofold dilution method; assay type: functional; details: Staphylococcus aureus; read-out: MIC
[3] = system: Salmonella enterica subsp. enterica; experiment: Antibacterial activity against Salmonella typhi by twofold dilution method; assay type: functional, Salmonella enterica subsp. enterica serovar Typhi; details: Salmonella enterica; read-out: MIC
[4] = system: Escherichia coli; experiment: Antibacterial activity against Escherichia coli by twofold dilution method; assay type: functional; details: Escherichia coli; read-out: MIC
[5] = system: Candida albicans; experiment: Antifungal activity against Candida albicans by twofold dilution method; assay type: functional; details: Candida albicans; read-out: MIC
[6] = system: Candida; experiment: Antifungal activity against Candida 51 by twofold dilution method; assay type: functional; details: Candida, 51; read-out: MIC
[7] = system: Rhizopus; experiment: Antifungal activity against Rhizopus sp. by twofold dilution method; assay type: functional; details: Rhizopus; read-out: MIC
[8] = system: Aspergillus niger; experiment: Antifungal activity against Aspergillus niger by twofold dilution method; assay type: functional; details: Aspergillus niger; read-out: MIC
[9] = system: Aspergillus flavus; experiment: Antifungal activity against Aspergillus flavus by twofold dilution method; assay type: functional; details: Aspergillus flavus; read-out: MIC
[10] = system: Cryptococcus neoformans; experiment: Antifungal activity against Cryptococcus neoformans by twofold dilution method; assay type: functional; details: Cryptococcus neoformans; read-out: MIC
[11] = system: Staphylococcus aureus; experiment: Ratio of MIC for drug to MIC for Ciprofloxacin against Staphylococcus aureus; assay type: functional
[12] = system: Salmonella enterica subsp. enterica; experiment: Ratio of MIC for drug to MIC for Ciprofloxacin against Salmonella typhi; assay type: functional, Salmonella enterica subsp. enterica serovar Typhi
[13] = system: Escherichia coli; experiment: Ratio of MIC for drug to MIC for Ciprofloxacin against Escherichia coli; assay type: functional
[14] = system: Pseudomonas aeruginosa; experiment: Ratio of MIC for drug to MIC for Ciprofloxacin against Pseudomonas aeruginosa; assay type: functional
[15] = system: Rhizopus; experiment: Ratio of MIC for drug to MIC for Amphotericin B against Rhizopus sp.; assay type: functional
[16] = system: Aspergillus flavus; experiment: Ratio of MIC for drug to MIC for Amphotericin B against Aspergillus flavus; assay type: functional
[17] = system: Candida albicans; experiment: Ratio of MIC for drug to MIC for Amphotericin B against Candida albicans; assay type: functional
[18] = system: Aspergillus niger; experiment: Ratio of MIC for drug to MIC for Amphotericin B against Aspergillus niger; assay type: functional
[19] = system: Cryptococcus neoformans; experiment: Ratio of MIC for drug to MIC for Amphotericin B against Cryptococcus neoformans; assay type: functional

| SMILES | MIC [1] [µg/mL] | MIC [2] [µg/mL] | MIC [3] [µg/mL] | MIC [4] [µg/mL] | MIC [5] [µg/mL] | MIC [6] [µg/mL] | MIC [7] [µg/mL] | MIC [8] [µg/mL] | MIC [9] [µg/mL] | MIC [10] [µg/mL] | Ratio [11] | Ratio [12] | Ratio [13] | Ratio [14] | Ratio [15] | Ratio [16] | Ratio [17] | Ratio [18] | Ratio [19] |
| --- | --- | --- | --- | --- | --- | --- | --- | --- | --- | --- | --- | --- | --- | --- | --- | --- | --- | --- | --- |
| CC1C(=NOCc2ccccc2)C(C)C(c2ccc(Cl)cc2)NC1c1ccc(Cl)cc1 (stereo unspecified) | 6.25 (≈ 13.8 µM) | 6.25 (≈ 13.8 µM) | 25 (≈ 55.1 µM) | 12.5 (≈ 27.6 µM) | 25 (≈ 55.1 µM) | 25 (≈ 55.1 µM) | 50 (≈ 110 µM) | 25 (≈ 55.1 µM) | 25 (≈ 55.1 µM) | 25 (≈ 55.1 µM) | 2 | 2 | 2 | 4 |  |  |  |  |  |
| Cc1ccc(C2NC(c3ccc(C)cc3)C(C)C(=NOCc3ccccc3)C2C)cc1 (stereo unspecified) | 25 (≈ 60.6 µM) | 6.25 (≈ 15.1 µM) | 50 (≈ 121 µM) | 12.5 (≈ 30.3 µM) | 50 (≈ 121 µM) | 6.25 (≈ 15.1 µM) | 12.5 (≈ 30.3 µM) | 50 (≈ 121 µM) | 25 (≈ 60.6 µM) | 50 (≈ 121 µM) |  |  | 4 | 4 | 2 | 2 | 2 | 2 | 2 |
